Data: patent US9050346B2, “Bromodomain inhibitors” (AbbVie Inc., priority 2013, dated 2015)
Marks after values point to notes of the source that are not given here.

Tests used:
[1] = target: T1, BRD4 (BDI_K57-E168) (Homo sapiens, UniProt O60885); test: TR-FRET bromodomain binding assay, BRD4 first bromodomain; conditions: His-tagged BD1, 100 nM Alexa647 probe; Ki calculated from IC50; dilution protocol A-G
T1 construct: BD1: amino acids K57-E168; made in house
Method in brief: (§1)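 His-tagged BRD4 BD1 (K57-E168) or BD2 (8 nM) with Eu-anti-His antibody and Alexa647-labeled BET-inhibitor probe (100 nM for BDI, 30 nM for BDII), pH 6.0 phosphate buffer, 2% DMSO, 1 h at room temperature. TR-FRET (Ex 340, Em 495/520); IC50 by 4-parameter fit, converted to Ki using probe Kd and concentration.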

[2] = system: LPS induced IL-6 production; test: LPS (lipopolysaccharide) induced IL-6 production mouse assay; assay type: in vivo; conditions: 3 mg/kg oral, 1 h before LPS 2.5 mg/kg i.p.; serum IL-6 2 h after LPS; SCID female mice; all p<0.05
Experimental: Compounds of the Examples listed in Table 2 were assayed for their ability to inhibit LPS (lipopolysaccharide) induced IL-6 (Interleukin-6) production in mice. Fox Chase SCID® female mice (Charles Rivers Labs, 5 per group) received an intraperitoneal challenge of lipopolysaccharide (2.5 mg/kg, L2630 E. coli 0111:B4) one hour after oral administration of compounds. Mice were euthanized 2 hours after lipopolysaccharide injection, blood was removed by cardiac puncture, and then the serum harvested from the blood samples was frozen at −80° C. On the day of the assay the serum samples were brought to room temperature and then diluted 1:20 in phosphate-buffered saline containing 2% bovine serum albumin. Interleukin-6 measurements were performed using a cytokine assay from Meso Scale Discovery (Gaithersburg, Md.) for mouse serum analysis according to the manufacturer's protocol and read on a SECTOR Imager 6000 (Meso Scale Discovery, Gaithersburg, Md.) instrument. Statistical analysis was performed using Prism software (version 5.0) incorporating Dunnett's one way ANOVA. The IL-6 mean and standard deviation of the group of vehicle treated animals were compared with the IL-6 mean and standard deviation of the group treated with drug. A p value<0.05 means that there is less than a 5% probability that the mean values in the two groups are equal.
Xenograft Tumor Growth Inhibition Assay

[3] = system: breast cancer cell line MX-1; test: MX-1 cell line proliferation assay (3-day, Cell Titer Glo); assay type: cell-based; conditions: Homo sapiens, MX1, MX-1 cells, 72 h, top concentration 3 μM, read-out: Cellular proliferation: EC50
Method in brief: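 MX-1 cells, 5000/well in RPMI 1640 with 10% FBS, adhered overnight, then treated 3 days with compound at final 3 to 0.0001 μM (3-fold steps). Cell Titer Glo luminescence normalized to DMSO-treated cells; EC50 from sigmoidal fit.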

[4] = target: T2, BRD4 (BDII_E352-M457) (Homo sapiens, UniProt O60885); test: TR-FRET bromodomain binding assay, BRD4 second bromodomain
T2 construct: made in house
Method in brief: as §1

[5] = system: OPM-2 human multiple myeloma xenograft tumors; test: OPM-2 xenograft tumor growth inhibition assay; assay type: in vivo, mice; conditions: QDx21; for % TGI: SCID-beige mice; for % TGD (tumor growth delay): endpoint 1000 mm^3
Experimental: The effect of compounds of the examples to inhibit the growth of OPM-2 xenograft tumors implanted in mice was evaluated. A suspension of cancer cells (5×10^6 per 0.1 mL) prepared in RPMI culture medium (Invitrogen, Carlsbad, Calif.) was diluted 1:1 with a solution of Matrigel™ (BD Biosciences, Franklin Lakes, N.J.) and inoculated subcutaneously into the right hind flank of female SCID-beige (Charles River Labs) mice. Randomization into treatment and vehicle control groups (10/group) occurred when the mean tumor volume reached approximately 250 mm^3. Compounds were formulated in 2.5% DMSO, 10% EtOH, 27.5% PEG 400, 60% Phosol 53 MCT. Administration of compound or vehicle was initiated on the day following randomization and continued for 21 days. Tumors were measured twice a week throughout the treatment period using a pair of calipers and tumor volumes were calculated according to the formula V=L×W^2/2 (V: volume, mm^3; L: length, mm. W: width, mm) Tumor growth inhibition was calculated based on the mean tumor volume measured on the first day that the mean volume of the vehicle group exceeded 2000 mm^3 according to the formula % TGI=100-mean tumor volume of treatment group/mean tumor volume of control group x 100.

| Ki [1] [nM] | EC50 [3] [nM] | Ki [4] [nM] | Compound | % inhibition of LPS induced IL-6 production at 3 mg/kg [2] [%] | % removed from study (morbidity or weight loss in excess of 20%) ([5]; 45 mg/kg PO) [%] | % TGI ([5]; 45 mg/kg PO) | % TGD (tumor growth delay) ([5]; 45 mg/kg PO) | % removed from study (morbidity or weight loss in excess of 20%) ([5]; 150 mg/kg PO) [%] | % TGI ([5]; 150 mg/kg PO) | % TGD (tumor growth delay) ([5]; 150 mg/kg PO) |
| --- | --- | --- | --- | --- | --- | --- | --- | --- | --- | --- |
| 1.47 | 24 | 21.5 | COC(=O)c1cc2c(-c3cc(N)ccc3Oc3ccccc3)[nH]c(C)c2c(=O)[nH]1 [Example 2, methyl 1-(5-amino-2-phenoxyphenyl)-3-methyl-4-oxo-4,5-dihydro-2H-pyrrolo[3,4-c]pyridine-6-carboxylate] | 25 |  |  |  |  |  |  |
| 10.6 | 114 | 46.7 | COCCNC(=O)c1cc2c(-c3ccccc3Oc3ccccc3)[nH]c(C)c2c(=O)[nH]1 [Example 29, N-(2-methoxyethyl)-3-methyl-4-oxo-1-(2-phenoxyphenyl)-4,5-dihydro-2H-pyrrolo[3,4-c]pyridine-6-carboxamide] | 40 |  |  |  |  |  |  |
| 15.9 | 150 | 25.4 | CCCNC(=O)c1cc2c(-c3cc(N)ccc3Oc3ccc(F)cc3F)[nH]c(C)c2c(=O)[nH]1 [Example 43, 1-[5-amino-2-(2,4-difluorophenoxy)phenyl]-3-methyl-4-oxo-N-propyl-4,5-dihydro-2H-pyrrolo[3,4-c]pyridine-6-carboxamide] | 39 |  |  |  |  |  |  |
| 5.82 | 410 | 16.2 | Cc1[nH]c(-c2cc(NS(=O)(=O)CC(F)(F)F)ccc2Oc2ccccc2)c2cn[nH]c(=O)c12 [Example 76, 2,2,2-trifluoro-N-[3-(7-methyl-1-oxo-2,6-dihydro-1H-pyrrolo[3,4-d]pyridazin-5-yl)-4-phenoxyphenyl]ethanesulfonamide] |  |  |  |  |  |  |  |
| 3.31 | 60.5 | 34.1 | Cc1[nH]c(-c2cc(N)ccc2Oc2ccc(F)cc2F)c2cn[nH]c(=O)c12 [Example 78, 5-[5-amino-2-(2,4-difluorophenoxy)phenyl]-7-methyl-2,6-dihydro-1H-pyrrolo[3,4-d]pyridazin-1-one] |  |  |  |  |  |  |  |
| 1.78 | 88.6 | 5.91 | CCS(=O)(=O)Nc1ccc(Oc2ccc(F)cc2F)c(-c2[nH]c(C)c3c(=O)[nH]ncc23)c1 [Example 79, N-[4-(2,4-difluorophenoxy)-3-(7-methyl-1-oxo-2,6-dihydro-1H-pyrrolo[3,4-d]pyridazin-5-yl)phenyl]ethanesulfonamide] |  |  |  |  |  |  |  |
| 3.26 | 92.2 | 24.4 | Cc1[nH]c(-c2cc(NS(C)(=O)=O)ccc2Oc2ccc(F)cc2F)c2cn[nH]c(=O)c12 [Example 80, N-[4-(2,4-difluorophenoxy)-3-(7-methyl-1-oxo-2,6-dihydro-1H-pyrrolo[3,4-d]pyridazin-5-yl)phenyl]methanesulfonamide] |  |  |  |  |  |  |  |
| 22.7 | 394 | 254 | Cc1[nH]c(-c2cc(S(C)(=O)=O)ccc2Oc2ccc(F)cc2F)c2cn[nH]c(=O)c12 [Example 81, 5-[2-(2,4-difluorophenoxy)-5-(methylsulfonyl)phenyl]-7-methyl-2,6-dihydro-1H-pyrrolo[3,4-d]pyridazin-1-one] |  |  |  |  |  |  |  |
| 36.7 | 167 | 357 | Cc1[nH]c(-c2cc(C#N)ccc2Oc2ccc(F)cc2F)c2cn[nH]c(=O)c12 [Example 82, 4-(2,4-difluorophenoxy)-3-(7-methyl-1-oxo-2,6-dihydro-1H-pyrrolo[3,4-d]pyridazin-5-yl)benzonitrile] | 44 |  |  |  |  |  |  |
| 126 | 1720 | 627 | Cc1cc(-c2ccc(-c3[nH]c(C)c4c(=O)[nH]ncc34)cc2)[nH]n1 [Example 83, 7-methyl-5-[4-(3-methyl-1H-pyrazol-5-yl)phenyl]-2,6-dihydro-1H-pyrrolo[3,4-d]pyridazin-1-one] |  |  |  |  |  |  |  |
| 15.6 | 288 | 112 | CCS(=O)(=O)c1ccc(NCC2CC2)c(-c2[nH]c(C)c3c(=O)[nH]ncc23)c1 [Example 84, 5-{2-[(cyclopropylmethyl)amino]-5-(ethylsulfonyl)phenyl}-7-methyl-2,6-dihydro-1H-pyrrolo[3,4-d]pyridazin-1-one] |  |  |  |  |  |  |  |
| 92.4 | 1240 | 720 | Cc1[nH]c(-c2ccccc2Oc2ccccc2)c2nc[nH]c(=O)c12 [Example 85, 5-methyl-7-(2-phenoxyphenyl)-3,6-dihydro-4H-pyrrolo[3,4-d]pyrimidin-4-one] |  |  |  |  |  |  |  |
| 82.3 | > 3000 | 1180 | CCOC(=O)c1nc2c(-c3ccccc3Oc3ccccc3)[nH]c(C)c2c(=O)[nH]1 [Example 87, ethyl 5-methyl-4-oxo-7-(2-phenoxyphenyl)-4,6-dihydro-3H-pyrrolo[3,4-d]pyrimidine-2-carboxylate] |  |  |  |  |  |  |  |
| 380 | 761 | 1620 | Cc1[nH]c(-c2ccccc2Oc2ccccc2)c2nc(-c3ccco3)[nH]c(=O)c12 [Example 88, 2-(furan-2-yl)-5-methyl-7-(2-phenoxyphenyl)-3,6-dihydro-4H-pyrrolo[3,4-d]pyrimidin-4-one] |  |  |  |  |  |  |  |
| 212 | 963 | 497 | Cc1nc2c(-c3ccccc3Oc3ccccc3)[nH]c(C)c2c(=O)[nH]1 [Example 89, 2,5-dimethyl-7-(2-phenoxyphenyl)-3,6-dihydro-4H-pyrrolo[3,4-d]pyrimidin-4-one] |  |  |  |  |  |  |  |
| 17.2 | 91.9 | 32.4 | Cc1[nH]c(-c2cc(N)ccc2Oc2ccccc2)c2c1C(=O)NCC2 [Example 94, 1-(5-amino-2-phenoxyphenyl)-3-methyl-2,5,6,7-tetrahydro-4H-pyrrolo[3,4-c]pyridin-4-one] | 27 |  |  |  |  |  |  |
| 34.3 | 407 | 461 | Cc1[nH]c(-c2cc(S(C)(=O)=O)ccc2OCC2CC2)c2c1C(=O)NCC2 [Example 96, 1-[2-(cyclopropylmethoxy)-5-(methylsulfonyl)phenyl]-3-methyl-2,5,6,7-tetrahydro-4H-pyrrolo[3,4-c]pyridin-4-one] |  |  |  |  |  |  |  |
| 24.3 | > 3000 | 157 | COC(=O)C1Cc2c(-c3ccccc3Oc3ccccc3)[nH]c(C)c2C(=O)N1 (centres unmarked) [Example 97, methyl 3-methyl-4-oxo-1-(2-phenoxyphenyl)-4,5,6,7-tetrahydro-2H-pyrrolo[3,4-c]pyridine-6-carboxylate] |  |  |  |  |  |  |  |
| 34.9 | 721 | 148 | Cc1[nH]c(-c2cc(S(C)(=O)=O)ccc2Oc2ccc(F)cc2F)c2c1C(=O)NCC2 [Example 98, 1-[2-(2,4-difluorophenoxy)-5-(methylsulfonyl)phenyl]-3-methyl-2,5,6,7-tetrahydro-4H-pyrrolo[3,4-c]pyridin-4-one] |  | 0 | 45** % | 53** % | 20 | 68*** % | 123** % |
| 8.42 | 45.8 | 11.5 | Cc1[nH]c(-c2cc(N)ccc2Oc2ccc(F)cc2F)c2c1C(=O)NC(C)C2 (centres unmarked) [Example 101, 1-[5-amino-2-(2,4-difluorophenoxy)phenyl]-3,6-dimethyl-2,5,6,7-tetrahydro-4H-pyrrolo[3,4-c]pyridin-4-one] |  |  |  |  |  |  |  |
| 122 | 239 | 198 | Cc1[nH]c(-c2cc(CO)ccc2Oc2ccc(F)cc2F)c2c1C(=O)NCC2 [Example 103, 1-[2-(2,4-difluorophenoxy)-5-(hydroxymethyl)phenyl]-3-methyl-2,5,6,7-tetrahydro-4H-pyrrolo[3,4-c]pyridin-4-one] |  |  |  |  |  |  |  |
